The source of these data is US20200129582A1, “NOVEL PEPTIDES AND PEPTIDOMIMETICS” (UNIVERSITY OF AUCKLAND, priority 2016, published 2020).

Several values for one entry are separate records, joined by “and”; a condition that tells them apart may be missing. Equal values may be shown once. Read-outs that look alike come from different tables or passages of the source.

In experiment [1] the target is T1, hemichannel-mediated ATP release from hCMVEC cells (Homo sapiens, UniProt P17302).
T1 construct: endogenous in cells; host or cells: hCMVEC (human cerebral microvascular endothelial cells)
T1 sequence (P17302 2-382 limits assumed): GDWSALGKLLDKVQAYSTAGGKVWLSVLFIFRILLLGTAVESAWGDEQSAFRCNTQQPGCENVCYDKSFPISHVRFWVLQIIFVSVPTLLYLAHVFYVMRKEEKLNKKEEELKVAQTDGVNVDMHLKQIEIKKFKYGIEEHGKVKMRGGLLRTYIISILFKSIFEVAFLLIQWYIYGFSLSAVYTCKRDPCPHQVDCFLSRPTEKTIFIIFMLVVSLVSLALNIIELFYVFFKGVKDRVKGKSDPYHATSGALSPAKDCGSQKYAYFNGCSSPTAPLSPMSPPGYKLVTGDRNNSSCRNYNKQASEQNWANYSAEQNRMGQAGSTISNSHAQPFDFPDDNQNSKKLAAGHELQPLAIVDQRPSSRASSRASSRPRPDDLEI
Put plainly: In vitro ischemia injury ATP release assay (single alanine substituted and truncated peptides). The class given is cell-based. As for the experimental part: The human cerebral endothelial cells (hCMVEC) were plated at a density of 0.025×10^6 cells per well in a collagen-coated 12-well plate (1 μg/cm^2) a day prior to the experiment. Cells were incubated in culture medium overnight. Hypoxic, acidic, ion-shifted Ringer injury solution that mimics ionic concentrations and acid-base shifts of the interstitial space in hypoxic-ischemic brains (Bondarenko and Chesler, 2001, […]) was used to trigger hemichannel opening. The injury solution contained (in mM): 38 NaCl, 13 NaHCO3, 3 Na-gluconate, 65 K-gluconate, 38 NMDG-Cl, 1 NaH2PO4, and 1.5 MgCl2. The injury solution was bubbled in 95% N2, 5% CO2 gas (20 L/min) for 5 minutes and pH adjusted to 6.6 before use. The standard ringer solution contained (in mM): 124 NaCl, 3 KCl, 26 NaHCO3, 26 NaHCO3, 1 NaH2PO4, 1.3 CaCl2, 1.5 MgCl2, and 10 Glucose, and pH adjusted to 7.4 before use (Bondarenko and Chesler, 2001). In the ischemia injury model, hCMVEC cells were incubated for 2 hours in 500 μL injury solution+/−Peptide5 (100 μM) (O'Carroll et al., 2008, Cell communication & adhesion 15:27-42; Danesh-Meyer et al., 2012, Brain: a journal of neurology 135:506-520; Davidson et al., 2012, Annals of neurology 71:121-132; Davidson et al., 2013, Experimental neurology 248:301-308; Davidson et al., 2014, PloS one 9:e96558; Davidson et al., 2015, J Cereb Blood Flow Metab), or +/−extracellular loop sequences (Table 5), or modified peptides (Table 2, 3) dissolved in injury solution (500 μL) with a final concentration of 100 μM. For negative control, hCMVEC cells were incubated only in 500 μL standard ringer solution for 2 hours. For positive control, hCMVEC cells were incubated only in 500 μL […] for 2 hours. All incubations were conducted at 37° C. in 95% O2 and 5% CO2. At the end of each experiment, samples were removed and immediately placed on ice. The concentration of ATP in the samples was determined using a Luciferin/luciferase bioluminescence reaction (ATP Determination Kit, Molecular Probes) and detected using a luminescence plate reader (VICTOR X, Perkin Elmer #2030-0010). Standard curves were generated in each experiment from an ATP standard (0 to 500 nM) to convert bioluminescence units to ATP concentration. […] The data is presented as mean±standard error relative to the injury or injury-reperfusion positive control. Statistically significant differences between samples were tested using one-way analysis of variance and Tukey's multiple comparisons test.
Peptides listed in table 5 and 2 were assessed using the ischemia injury model in hCMVEC cells as described above, and the medium was collected for ATP release measurement.
The human cerebral endothelial cells (hCMVEC) were plated at a density of 0.025×10^6 cells per well in a collagen-coated 12-well plate (1 μg/cm^2) a day prior to the experiment. Cells were incubated in culture medium overnight. Hypoxic, acidic, ion-shifted Ringer injury solution that mimics ionic concentrations and acid-base shifts of the interstitial space in hypoxic-ischemic brains (Bondarenko and Chesler, 2001) was used to trigger hemichannel opening. The injury solution contained (in mM): 38 NaCl, 13 NaHCO3, 3 Na-gluconate, 65 K-gluconate, 38 NMDG-Cl, 1 NaH2PO4, and 1.5 MgCl2. The injury solution was bubbled in 95% N2, 5% CO2 gas (20 L/min) for 5 minutes and pH adjusted to 6.6 before use. The standard ringer solution contained (in mM): 124 NaCl, 3 KCl, 26 NaHCO3, 26 NaHCO3, 1 NaH2PO4, 1.3 CaCl2, 1.5 MgCl2, and 10 Glucose, and pH adjusted to 7.4 before use (Bondarenko and Chesler, 2001).

For experiment [2], the target named is T2, Connexin43 protein (hemichannels of hCMVEC cells) (Homo sapiens, UniProt P17302).
T2 construct: In the ischemia injury model, hCMVEC cells were incubated for 2 hours; endogenous in cells; host or cells: hCMVEC (human cerebral microvascular endothelial cells)
T2 sequence (P17302 2-382): as the sequence (P17302 2-382 limits assumed) above
The experiment is classed as cell-based. The following applies: agent alone, 100 μM, FIG. 6, injury control 100±3.5%.

The subject of experiment [3] is hemichannels and gap junction channels. The following applies: O'Carroll et al., 2008; cited from earlier work.
Experiment [4] concerns the target T2, Connexin43 protein (hemichannels of hCMVEC cells). The experiment is classed as cell-based. As for the experimental part: (§1) Peptide5 interacting site on the Connexin43 protein was determined using a competition assay. Extracellular loop sequences (Auspep, Australia) were dissolved in miliQ H2O were at a stock concentration of 1 mM […]. Extracellular loop sequences were mixed with the native Peptide5 at 1:1 ratio (100 μM), which was left for 1 hour at room temperature prior to the experiment to allow competitive binding to occur. Following 1-hour incubation, extracellular loop sequence and peptide5 mixture was dissolved in injury solution and exposed to hCMVEC cells for 2 hours using the ischaemia-reperfusion model described above. Extracellular medium was then collected for ATP measurement.
as §1, with “interaction sites” for “interacting site”

As to `CC1(C)[C@@H](OC(=O)CCC(=O)O)CC[C@]2(C)[C@H]3C(=O)C=C4[C@@H]5C[C@@](C)(C(=O)O)CC[C@]5(C)CC[C@@]4(C)[C@]3(C)CC[C@@H]12` [CBX, Carbenoxolone], in experiment [1] (hCMVEC, 100 μM, FIG. 3), the “ATP release compared to injury control (in words)” value is “significantly reduced ATP release”. Also, the “ATP release, % of the injury control” value in experiment [1] (hCMVEC, ischemic injury solution 2 hours, 100 μM, FIG. 3, injury control 100±3.6%) is listed as 9.1±10.1%; in experiment [2], 13.4±4.8%.
Consider VDCFLSRPTEKT [Peptide5], for which, in experiment [3], the “high concentration that inhibits both hemichannel and gap junction channel function” value is 500 µM; the “low concentrations that specifically inhibit hemichannels” value was 5 to 50 µM. For the same molecule, in experiment [1], the “ATP release compared to injury control (in words)” value was “significantly reduced ATP release”; the “ATP release, % of the injury control” value is 44.6±7.7% and 47.3±5.1%. For the same molecule, in experiment [4], the “ATP release, % of the injury control” value is given as 54.1±4.4%.
